Patent US20190352288A1, “MATRIX METALLOPROTEINASE (MMP) INHIBITORS AND METHODS OF USE THEREOF” (Foresee Pharmaceuticals Co., Ltd., priority 2018, published 2019)

Experiments:
Format in all cases: biochemical
Settings in all cases: Table 2 selectivity profile
[1] = molecular target: T1, recombinant human MMP-1 (Homo sapiens, UniProt P03956); test: MMP selectivity assay, MMP-1
T1 sequence (P03956 100-469): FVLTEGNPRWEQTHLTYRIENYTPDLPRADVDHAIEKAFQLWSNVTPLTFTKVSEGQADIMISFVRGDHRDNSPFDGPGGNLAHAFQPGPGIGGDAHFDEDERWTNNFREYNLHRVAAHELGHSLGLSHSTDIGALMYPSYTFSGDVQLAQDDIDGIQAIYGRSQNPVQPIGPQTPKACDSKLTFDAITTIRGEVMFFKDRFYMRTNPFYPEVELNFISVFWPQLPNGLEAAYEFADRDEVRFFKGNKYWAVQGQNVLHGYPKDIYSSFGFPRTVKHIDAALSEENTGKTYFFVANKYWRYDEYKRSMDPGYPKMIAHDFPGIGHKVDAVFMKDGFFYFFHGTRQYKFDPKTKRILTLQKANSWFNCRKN
Method: (§1) The inhibitory effect of compounds on the rate of cleaving fluorogenic MMP substrate (Enzo, BML-P128) by recombinant human MMP-12 catalytic domain (Enzo, BML-SE138) was carried out by methods known in the art. Briefly, to each well of a 96-well black opaque plate, all the reagents were sequentially added by pipetting, and the final reaction contained 4 nM of recombinant human MMP-12 catalytic domain, 4 μM of fluorogenic MMP substrate, and various concentrations (0.15 nM to 10,000 nM) of tested compound dilutions in HEPES buffer (pH 7.5) containing 10 mM of CaCl2), 0.01% Brij® 35 (polyoxyethylene (23) lauryl ether), and 0.1 mg/ml of BSA.
(§2) The enzyme and compounds were pre-incubated on a shaker to mix in wells. After an hour of mixing, fluorogenic substrate was added to each well. Reaction without enzyme was used as a blank control in the plate. The plate was then fed into a plate reader to measure fluorescence intensity at Excitation/Emission wavelengths of 340 nm/440 nm every 10 mins for at least 1 hour at 37° C. The IC50 of each compound in MMP-12 inhibition was determined by using a readout obtained at time point 30 minutes.
(§3) The MMP selectivity assay was performed by using other recombinant human MMPs, including MMP-1, MMP-2, MMP-3, MMP-7, MMP-8, MMP-9, MMP-10, MMP-13, and MMP-14. The IC50 of the compounds for the other recombinant human MMPs was determined as described above in Example 1, and are shown in Table 2.

[2] = molecular target: T2, recombinant human MMP-2 (Homo sapiens, UniProt P08253); test: MMP selectivity assay, MMP-2
T2 sequence (P08253 110-660): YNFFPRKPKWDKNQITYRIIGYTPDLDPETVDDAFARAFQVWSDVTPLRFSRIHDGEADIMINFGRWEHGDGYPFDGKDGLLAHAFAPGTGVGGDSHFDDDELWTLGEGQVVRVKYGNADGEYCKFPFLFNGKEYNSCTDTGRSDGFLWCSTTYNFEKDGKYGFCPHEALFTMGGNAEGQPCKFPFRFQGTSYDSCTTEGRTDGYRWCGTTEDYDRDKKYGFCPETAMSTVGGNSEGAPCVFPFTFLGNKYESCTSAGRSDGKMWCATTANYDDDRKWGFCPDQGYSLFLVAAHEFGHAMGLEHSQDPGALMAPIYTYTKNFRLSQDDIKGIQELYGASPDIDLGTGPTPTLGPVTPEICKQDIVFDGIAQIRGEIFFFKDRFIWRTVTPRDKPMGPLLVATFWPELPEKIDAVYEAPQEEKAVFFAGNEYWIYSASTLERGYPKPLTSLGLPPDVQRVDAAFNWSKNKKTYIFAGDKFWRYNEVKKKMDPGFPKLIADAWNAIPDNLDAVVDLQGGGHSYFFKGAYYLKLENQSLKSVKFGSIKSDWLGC
Method: as §1, §2, §3

[3] = molecular target: recombinant human MMP-3 (Homo sapiens, UniProt P08254); test: MMP selectivity assay, MMP-3
recombinant human MMP-3, sequence (P08254 100-477): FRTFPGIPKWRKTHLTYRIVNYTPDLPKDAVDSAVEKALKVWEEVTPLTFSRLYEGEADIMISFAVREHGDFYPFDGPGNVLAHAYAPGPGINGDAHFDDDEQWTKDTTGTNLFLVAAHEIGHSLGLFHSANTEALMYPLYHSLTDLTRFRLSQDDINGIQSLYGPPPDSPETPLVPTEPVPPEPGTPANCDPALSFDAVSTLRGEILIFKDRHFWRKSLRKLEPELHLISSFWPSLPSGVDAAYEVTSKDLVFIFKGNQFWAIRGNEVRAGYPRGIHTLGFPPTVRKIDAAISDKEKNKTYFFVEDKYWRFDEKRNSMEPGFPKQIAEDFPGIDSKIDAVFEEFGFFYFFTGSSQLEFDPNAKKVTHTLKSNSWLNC
Method: as §1, §2, §3

[4] = molecular target: T3, recombinant human MMP-7 (Homo sapiens, UniProt P09237); test: MMP selectivity assay, MMP-7
T3 sequence (P09237 95-267): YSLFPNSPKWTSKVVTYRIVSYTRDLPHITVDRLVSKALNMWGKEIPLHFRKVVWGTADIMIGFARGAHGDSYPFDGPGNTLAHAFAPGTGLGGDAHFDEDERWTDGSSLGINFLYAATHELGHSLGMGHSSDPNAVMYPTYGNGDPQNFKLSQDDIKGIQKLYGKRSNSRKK
Method: as §1, §2, §3

[5] = molecular target: recombinant human MMP-8 (Homo sapiens, UniProt P22894); test: MMP selectivity assay, MMP-8
recombinant human MMP-8, sequence (P22894 101-467): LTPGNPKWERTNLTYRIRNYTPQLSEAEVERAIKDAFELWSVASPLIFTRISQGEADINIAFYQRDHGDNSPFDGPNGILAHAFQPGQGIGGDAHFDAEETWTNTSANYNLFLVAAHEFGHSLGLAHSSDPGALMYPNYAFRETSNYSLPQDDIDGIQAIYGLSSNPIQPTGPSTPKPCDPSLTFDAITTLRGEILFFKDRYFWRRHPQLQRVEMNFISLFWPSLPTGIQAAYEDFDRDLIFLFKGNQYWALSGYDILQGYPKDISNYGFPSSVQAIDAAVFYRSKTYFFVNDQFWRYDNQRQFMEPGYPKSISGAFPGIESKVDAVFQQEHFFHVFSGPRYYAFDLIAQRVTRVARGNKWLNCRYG
Method: as §1, §2, §3

[6] = molecular target: recombinant human MMP-9 (Homo sapiens, UniProt P14780); test: MMP selectivity assay, MMP-9
recombinant human MMP-9, sequence (P14780 94-707): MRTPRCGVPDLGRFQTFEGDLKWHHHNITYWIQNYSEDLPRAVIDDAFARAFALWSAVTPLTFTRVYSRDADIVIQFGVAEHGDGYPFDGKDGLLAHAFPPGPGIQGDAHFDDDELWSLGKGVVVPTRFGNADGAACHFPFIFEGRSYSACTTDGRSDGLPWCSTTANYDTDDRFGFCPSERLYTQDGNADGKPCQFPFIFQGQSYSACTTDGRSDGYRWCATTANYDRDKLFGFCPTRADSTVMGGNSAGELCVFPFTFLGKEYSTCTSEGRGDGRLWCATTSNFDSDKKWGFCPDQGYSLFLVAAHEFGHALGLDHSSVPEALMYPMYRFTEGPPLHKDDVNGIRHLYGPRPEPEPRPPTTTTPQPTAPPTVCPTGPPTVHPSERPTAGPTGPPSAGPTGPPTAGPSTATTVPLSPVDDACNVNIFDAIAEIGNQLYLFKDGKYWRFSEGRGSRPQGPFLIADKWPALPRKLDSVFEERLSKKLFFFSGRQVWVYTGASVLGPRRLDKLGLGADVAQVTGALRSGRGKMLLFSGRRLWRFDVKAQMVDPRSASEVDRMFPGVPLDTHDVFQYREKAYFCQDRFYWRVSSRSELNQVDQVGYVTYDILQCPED
Method: as §1, §2, §3

[7] = molecular target: recombinant human MMP-10 (Homo sapiens, UniProt P09238); test: MMP selectivity assay, MMP-10
recombinant human MMP-10, sequence (P09238 99-476): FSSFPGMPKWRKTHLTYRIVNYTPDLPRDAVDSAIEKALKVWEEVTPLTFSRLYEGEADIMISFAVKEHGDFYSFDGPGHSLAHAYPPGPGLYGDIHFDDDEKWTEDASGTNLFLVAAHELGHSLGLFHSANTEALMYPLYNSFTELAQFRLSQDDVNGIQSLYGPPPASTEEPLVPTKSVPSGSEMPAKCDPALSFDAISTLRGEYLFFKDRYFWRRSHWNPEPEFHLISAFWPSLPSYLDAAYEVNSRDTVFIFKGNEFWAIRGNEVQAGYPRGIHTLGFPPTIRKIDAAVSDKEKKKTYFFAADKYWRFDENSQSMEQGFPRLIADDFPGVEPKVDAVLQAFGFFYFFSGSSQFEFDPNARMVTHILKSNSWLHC
Method: as §1, §2, §3

[8] = molecular target: recombinant human MMP-13 (Homo sapiens, UniProt P45452); test: MMP selectivity assay, MMP-13
Method: as §1, §2, §3

[9] = molecular target: recombinant human MMP-14 (Homo sapiens, UniProt P50281); test: MMP selectivity assay, MMP-14
Method: as §1, §2, §3

IC50 [1]: > 10 µM
IC50 [2]: 0.1 to 1 µM
IC50 [3]: 1 to 10 µM
IC50 [4]: > 10 µM
IC50 [5]: 1 to 10 µM
IC50 [6]: 1 to 10 µM
IC50 [7]: 1 to 10 µM
IC50 [8]: 1 to 10 µM
IC50 [9]: 1 to 10 µM
SMILES: Cc1cc(COc2ccc(Sc3ccncc3C3NC(=O)NC3=O)cc2)ccn1 (stereo not drawn) [PC-16]
